Source: EP0768085A1, “ANTIBACTERIAL AGENT” (DAIICHI PHARMACEUTICAL CO., LTD., priority 1994, dated 1996)
In brackets after ≈: the same amount, converted by molar mass.

Columns and labels:
Type in all cases: cell-based
[1] = tested on: Pasteurella multocida (Kobe-6); experiment: Antibacterial activity (IC), broth microplate as in Example 4 (Example 6, Table 41); conditions: origin pig; for MIC: 18 h
Experimental: (§1) A suitable amount of a sample was dissolved in dimethylsulfoxide (DMSO), and the resultant solution was diluted with the same amount of sterilized distilled water to prepare a bulk sample of 1,000 µg/ml. Mueller-Hinton broth (product of DIFCO) was dispensed into each well of 96-well microplate. Thereafter, the bulk specimen was added to the first well of a row, and successively diluted (10-fold each time) with sterilized distilled water. Separately, a bacterial cell suspension for the test (Staphylococcus aureus 209-P) which had been cultured in the above-mentioned broth overnight at 37°C was inoculated to each well so that the final inoculation amount of 10^6 CFU/ml was attained. The final concentrations of the samples were 100, 10, and 1 µg/ml.
(§2) The antibacterial action was evaluated by the inhibitory concentration (hereinafter abbreviated as IC) at which propagation of the bacteria cultured at 37°C for 18 hours was inhibited. Inhibition was determined by the turbidity of the medium. The expressions "IC≤100", "≤10", and "≤1" indicate that MIC-equivalent values obtained at the succesive […] dilution of the sample are 100-10 µg/ml, 10-1 µg/ml, and not more than 1 µg/ml, respectively. […] (In the subsequent Examples, the same rule applies correspondingly.) Table 39
In a manner similar to that described in Example 4, antibacterial activity of the invention compound was determined. The bacterium used for the test was Pasteurella Kobe-6 (origin: pig; Pasteurella multocida).

[2] = tested on: Staphylococcus aureus TI-1; experiment: Antibacterial activity (IC), broth microplate as in Example 4 (Example 5, Table 40); conditions: for MIC: TI1, 18 h
Experimental: as §1, §2
In a manner similar to that described in Example 4, antibacterial activity of the invention compound was determined. The bacterium used for the test was Staphylococcus aureus TI-1.

[3] = tested on: methicillin-resistant Staphylococcus aureus (MRSA) isolated from humans; experiment: Antibacterial activity (IC), Mueller-Hinton agar containing the sample (Example 8, Table 43); conditions: for MIC: Staphylococcus aureus, MRSA, 18 h; for IC: 18 hours
Experimental: as §2
(§3) A suitable amount of a sample was dissolved in dimethylsulfoxide (DMSO), after which the resulting solution was diluted with the same amount of sterilized distilled water to prepare a bulk sample of 1,000 µg/ml. Separately, a bacterial liquid for the test (methicillin-resistant Staphylococcus aureus (MRSA) isolated from humans) which had been cultured in Mueller-Hinton broth (product of DIFCO) was prepared and inoculated to a Mueller-Hinton agar (product of DIFCO) containing the sample so that the final inoculation amount of 10^6 CFU/ml was achieved. The final concentrations of the samples were 100, 10, and 1 µg/ml.
(§4) After culturing at 37°C for 18 hours, the antibacterial activity was evaluated in terms of IC in a manner similar to that described in Example 4.

[4] = tested on: Bordetella bronchiseptica (SM2-4); experiment: Antibacterial activity (IC), broth microplate as in Example 4 (Example 7, Table 42); conditions: for MIC: 18 h
Experimental: as §1, §2
In a manner similar to that described in Example 4, antibacterial activity of the invention compound was determined. The bacterium used for the test was Bordetella bronchiseptica (SM2-4).

[5] = tested on: Staphylococcus aureus 209-P; experiment: Antibacterial activity (IC), Mueller-Hinton broth, 96-well microplate (Example 4, Table 39); conditions: 37°C, 18 hours
Experimental: as §1, §2

[6] = tested on: Pasteurella multocida (Kobe-6); experiment: Antibacterial activity (IC), agar as in Example 8 (Example 17, Table 50); conditions: 18 h, origin pig
Summary of the method: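 Agar dilution on Mueller-Hinton agar with compound at 100, 10 and 1 µg/ml, inoculated at 10^6 CFU/ml with pig-origin strain Kobe-6. After 18 h at 37 °C, IC scored from turbidity and reported as a band (≤100, ≤10, ≤1 µg/ml).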

[7] = tested on: Streptococcus aureus (TI-1); experiment: Antibacterial activity (IC), agar as in Example 8 (Example 16, Table 49); conditions: 18 h
Summary of the method: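 Broth-grown […] aureus (TI-1) inoculated onto Mueller-Hinton agar containing compound, per the MRSA method; DMSO/water dilutions at final 100, 10 and 1 µg/ml, 10^6 CFU/ml inoculum. After 18 h at 37°C, growth inhibition judged by turbidity; IC reported as bands (100-10, 10-1, ≤1 µg/ml).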

[8] = tested on: methicillin-resistant Staphylococcus aureus (MRSA) from humans; experiment: Antibacterial activity (IC), agar as in Example 8 (Example 19, Table 52); conditions: 18 h
Summary of the method: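 MRSA human isolate at 10^6 CFU/ml on Mueller-Hinton agar containing compound at 100, 10 or 1 µg/ml, grown 18 h at 37 °C. IC is the lowest tested level that inhibited growth, binned as ≤100, ≤10 or ≤1 µg/ml.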

[9] = tested on: Bordetella bronchiseptica (SM2-4); experiment: Antibacterial activity (IC), agar as in Example 8 (Example 18, Table 51); conditions: 18 h
Experimental: as §2, §3, §4
(§5) In a manner similar to that described in Example 8, antibacterial activity of the invention compound was determined. The bacterium used for the test was Bordetella bronchiseptica (S1) and Bordetella bronchiseptica (SM2-4).

[10] = tested on: Bordetella bronchiseptica (S1); experiment: as above; conditions: 18 h
Experimental: as §2, §3, §4, §5

Pasteurella from fish = experiment: Antibacterial activity (IC), agar as in Example 8, media with 1.5% NaCl, 25°C (Example 20, Tables 53-55)
Summary of the method: (§6)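 Growth inhibition was scored by turbidity after culture at 25°C, with IC bands set from 2-fold-dilution MIC-equivalents. Samples were tested at final 100, 10 and 1 µg/ml in Mueller-Hinton agar with 1.5% NaCl, seeded with 10^6 CFU/ml of the fish isolates.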

Enterococcus from fish = experiment: as above
Summary of the method: as §6

[11] = tested on: Staphylococcus aureus (209-P); experiment: Antibacterial activity (IC), agar as in Example 8 (Example 15, Table 48); conditions: 18 h
Summary of the method: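 Agar dilution with Mueller-Hinton agar containing sample at final 100, 10 and 1 µg/ml, inoculated to 10^6 CFU/ml. Incubated at 37°C for 18 h, growth inhibition judged by medium turbidity. IC bands at successive 2-fold dilution: 100-10, 10-1, or ≤1 µg/ml.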

[12] = Enterococcus Seriolicida KG86050
[13] = Enterococcus Seriolicida MS89060
[14] = Enterococcus Seriolicida MS89064
[15] = Enterococcus Seriolicida MS89066
[16] = Enterococcus Seriolicida MS89068
[17] = Enterococcus Seriolicida SE94-001
[18] = Enterococcus Seriolicida SE94-002
[19] = Enterococcus Seriolicida SE94-003
[20] = Enterococcus Seriolicida SE94-004
[21] = Enterococcus Seriolicida SE94-005

Compound	MIC [1] [µg/mL]	MIC [2] [µg/mL]	MIC ([3]; MRSA strain 891179, 37°C) [µg/mL]	MIC ([3]; MRSA strain 891185, 37°C) [µg/mL]	MIC ([3]; MRSA strain 891187, 37°C) [µg/mL]	MIC ([3]; MRSA strain 891192, 37°C) [µg/mL]	MIC ([3]; MRSA strain 900048, 37°C) [µg/mL]	MIC ([3]; MRSA strain 900056, 37°C) [µg/mL]	MIC [4] [µg/mL]	MIC [5] [µg/mL]	IC (Enterococcus from fish; Enterococcus Seriolicida HI)	IC (Enterococcus from fish; [12])	IC (Enterococcus from fish; [13])	IC (Enterococcus from fish; [14])	IC (Enterococcus from fish; [15])	IC (Enterococcus from fish; [16])	IC (Enterococcus from fish; [17])	IC (Enterococcus from fish; [19])	IC (Enterococcus from fish; [20])	IC (Enterococcus from fish; [21])	other results
Cc1cc(OC(C)C(=O)C(C#N)c2ccc(Cl)c(Cl)c2)ccc1Oc1ccc(C(F)(F)F)cc1Cl (centres unmarked) [compound 44]	1 to 10 (≈ 1.84 to 18.4 µM)	≤ 1	≤ 1	≤ 1	≤ 1	≤ 1	≤ 1	≤ 1	10 to 100 (≈ 18.4 to 184 µM)	≤ 1	–	–	–	–	–	–	–	–	–	–	–
Cc1cc(Oc2ccc(C(F)(F)F)cc2Cl)cc(OC(C)C(=O)C(C#N)c2ccc(Cl)c(Cl)c2)c1 (centres unmarked) [Compound No. 112, 4-[3-(2-chloro-4-trifluoromethylphenoxy)-5-methylphenoxy]-2-(3,4-dichlorophenyl)-3-oxopentanonitrile]	–	–	–	–	–	–	–	–	–	–	≤10 (10-1 µg/ml)	≤10 (10-1 µg/ml)	≤10 (10-1 µg/ml)	≤10 (10-1 µg/ml)	≤10 (10-1 µg/ml)	≤10 (10-1 µg/ml)	≤10 (10-1 µg/ml)	≤10 (10-1 µg/ml)	≤10 (10-1 µg/ml)	≤10 (10-1 µg/ml)	MIC [6]: ≤ 1 µg/mL; MIC [7]: ≤ 1 µg/mL; MIC ([8]; MRSA strain 891179): ≤ 1 µg/mL; MIC ([8]; MRSA strain 891185): ≤ 1 µg/mL; MIC ([8]; MRSA strain 891187): ≤ 1 µg/mL; MIC ([8]; MRSA strain 891192): ≤ 1 µg/mL; MIC ([8]; MRSA strain 900048): ≤ 1 µg/mL; MIC ([8]; MRSA strain 900056): ≤ 1 µg/mL; MIC [9]: 10 to 100 µg/mL (≈ 18.4 to 184 µM); MIC [10]: 10 to 100 µg/mL (≈ 18.4 to 184 µM); MIC (Pasteurella from fish; Pasteurella piscicida KP94-02): 1 to 10 µg/mL (≈ 1.84 to 18.4 µM); MIC (Enterococcus from fish; [18]): 1 to 10 µg/mL (≈ 1.84 to 18.4 µM); MIC [11]: ≤ 1 µg/mL
4-[2-(2-chloro-4-trifluoromethylphenoxy)-4-methylphenoxy]-2-(3,4-dichlorophenyl)-3-oxopentanonitrile and 4-[2-(2-chloro-4-trifluoromethylphenoxy)-5-methylphenoxy]-2-(3,4-dichlorophenyl)-3-oxopentanonitrile [Compound No. 308]	–	–	–	–	–	–	–	–	–	–	≤ 1 µg/mL	≤ 1 µg/mL	≤ 1 µg/mL	≤ 1 µg/mL	≤ 1 µg/mL	≤ 1 µg/mL	≤ 1 µg/mL	≤ 1 µg/mL	≤ 1 µg/mL	≤ 1 µg/mL	IC [1]: 308 (≤10) (10-1 µg/ml); IC [2]: 308 (≤1) (not more than 1 µg/ml); IC ([3]; MRSA strain 891179, 37°C): ≤ 1 µg/mL; IC ([3]; MRSA strain 891185, 37°C): ≤ 1 µg/mL; IC ([3]; MRSA strain 891187, 37°C): ≤ 1 µg/mL; IC ([3]; MRSA strain 891192, 37°C): ≤ 1 µg/mL; IC ([3]; MRSA strain 900048, 37°C): ≤ 1 µg/mL; IC ([3]; MRSA strain 900056, 37°C): ≤ 1 µg/mL; IC [4]: 308 (≤100) (MIC-equivalent values obtained at the succesive 2-fold dilution of the sample are 100-10 µg/ml); IC [5]: 308 (≤1) (not more than 1 µg/ml); IC (Pasteurella from fish; Pasteurella piscicida KP94-02): ≤; IC (Pasteurella from fish; Pasteurella piscicida KP94-04): ≤; IC (Pasteurella from fish; Pasteurella piscicida KP94-05): ≤; IC (Pasteurella from fish; Pasteurella piscicida KP94-06): ≤; IC (Enterococcus from fish; [18]): ≤ 1 µg/mL
Cc1cc(Oc2ccc(C(F)(F)F)cc2Cl)ccc1OC(C)C(=O)C(C#N)c1ccc(Cl)c(Cl)c1 (centres unmarked) [compound 46]	10 to 100 (≈ 18.4 to 184 µM)	≤ 1	1 to 10 (≈ 1.84 to 18.4 µM)	1 to 10 (≈ 1.84 to 18.4 µM)	≤ 1	1 to 10 (≈ 1.84 to 18.4 µM)	≤ 1	≤ 1	10 to 100 (≈ 18.4 to 184 µM)	1 to 10 (≈ 1.84 to 18.4 µM)	–	–	–	–	–	–	–	–	–	–	–
